“Also recorded” adds a separate entry of the source.
Tests used:
[1] = Phase I trial, combination with cisplatin: pharmacokinetics; format: in vivo, human
Description: Non-DLT grade 3-4 treatment-related adverse events occurred in 11 pts, including nausea, cytopenia, hypotension, hypoalbuminemia, hypokalemia, elevated liver function tests (LFTs), and drug hypersensitivity. The maximum tolerated combination dose was not reached.

[2] = Phase I trial, combination with gemcitabine: pharmacokinetics; format: in vivo, human; conditions: combination with gem
Description: Grade 3/4 treatment-related adverse events (AEs) occurred in 25 pts. DLTs occurred in 4 pts: 2 pts in DL4 (grade 3 thrombocytopenia; grade 3 elevated ALT and fatigue); 1 pt in DL5 (grade 3 elevated AST); 1 pt in DL6, (grade 3 elevated AST, ALT and grade 2 elevated ALP). The maximum tolerated dose was not reached but dose escalation was stopped at DL10 per investigator recommendation. […] The primary tumors in these four patients were breast cancer, head and neck cancer, NSCLC, and carcinoma of unknown primary origin. A pt with breast cancer in DL8 achieved PR at the 1st assessment and the pt remains on trial >133 days. Two (2) pts had prolonged stable disease (SD) responses. The tumor response and duration of progression free survival (PFS) are shown in FIGS. 16 and 17, respectively. For many patients, the duration of PFS extended beyond the 12-week primary endpoint. […] Progression-free survival (PFS) of 415 days in 1 patient with renal cancer(papillary carcinoma) and >191 days (pt with GIST) were observed.

[3] = Phase I trial, monotherapy: adverse events and DLTs; format: in vivo, human; conditions: for Drug-related G3-4 AEs / Dose-limiting toxicities (DLT): Part A; for Dose-limiting toxicities (DLT): once weekly IV monotherapy 60 to 480 mg/m^2
Description: (§1) Pts with advanced solid tumors enrolled in 2 sequential parts.
(§2) Eleven of the subjects were given a once weekly dosage of Compound A-2 as a monotherapy. Six of the subjects were given a twice weekly dosage of Compound A-2 as a monotherapy. […] DLTs were defined according to the National Cancer Institute (NCI) CTCAE (Version 4).
(§3) In part A, single pt cohorts received a compound of Formula A-2 once weekly in 21-day cycles with 3+3 dose escalation cohorts being implemented if grade 2 drug-related adverse events (AEs) occurred. […] If a DLT was reported, the cohort was expanded to include 3 additional pts with subsequent dose escalation being permitted if no further DLTs occurred. Paired pre- and post-treatment biopsies from selected pts in part B were assessed for pCHK1 levels by immunohistochemistry. Models based on preclinical and clinical data were used to simulate hematologic toxicities and pCHK1 inhibition for pts treated with a compound of Formula A-2 and CP.

[4] = Phase I trial, combination with cisplatin: adverse events and DLTs
Description: Twenty eight (28) pts (12 males and 16 females) of median age, 62.5 yrs (range 28-79 yrs), with Eastern Cooperative Oncology Group (ECOG) performance status 0-1 were treated. Primary tumors were breast (n=4), colorectal (n=3), ovarian (n=3), pancreatic (n=2), non-small cell lung cancer (NSCLC) (n=1), and other cancers (n=15).

advanced solid tumors [5] = experiment: Phase I trial, combination with gemcitabine: response and PFS; format: in vivo, human
Description: Fifty (50) pts (28 males and 22 females) of median age, 62 yrs (range 28-79 yrs), with Eastern Cooperative Oncology Group (ECOG) performance status 0/1:15/35 were treated. Primary tumors included non-small cell lung (NSCLC; n=6), pancreatic (n=2), breast (n=4), colorectal (n=15), head and neck (n=1), and other/missing (n=22).

advanced solid tumors [6] = experiment: Phase I trial, monotherapy: RECIST antitumor response; format: in vivo, human
Description: as §1, §2, §3

[7] = monotherapy 60 mg/m^2 Once Weekly (n = 1)
[8] = monotherapy 120 mg/m^2 Once Weekly (n = 2)
[9] = monotherapy 240 mg/m^2 Once Weekly (n = 1)
[10] = monotherapy 240 mg/m^2 Twice Weekly (n = 6)
[11] = monotherapy 480 mg/m^2 Once Weekly (n = 7)

Structure (SMILES): CNCc1ccc(-c2cc(-c3nc(-c4ccc(S(=O)(=O)C(C)C)cc4)cnc3N)on2)cc1 [Compound A-2]
- half-life ([1]; both sexes, human, in vivo, intravenous, combination with CIS, read-out: Terminal elimination half-life (converted)): ~960 min
- PK across the dosage ranges ([1]; combination with CIS, 90-210 mg/m^2): proportional
- Effect of CIS on the pharmacokinetics of Compound A-2 ([1]; in vivo): no effect
- half-life ([2]; both sexes, human, in vivo, intravenous, across DLs, read-out: Terminal elimination half-life (converted)): ~960 min
- Exposure based on Cmax and AUC0-∞ [2]: relatively linear
- Drug-related G3-4 AEs ([3]; monotherapy): no
- Drug-related G3-4 AEs ([3]; monotherapy, listed as Formula A-2): none
- Dose-limiting toxicities (DLT) [3]: no dose-limiting toxicities; also recorded: no dose limiting toxicities
- Dose-limiting toxicities (DLT) ([3]; listed as Formula A-2): No DLTs
- Tolerability ([3]; as monotherapy and in combination with CP, CIS, or gem): well tolerated
- Treatment related adverse event: Any Event, All Grades [3, 7]: 1 (100) n (%)
- Treatment related adverse event: Any Event, Grade ≥ 3 [3, 7]: 0 n (%)
- Treatment related adverse event: Catheter site related reaction, All Grades [3, 7]: 0 n (%)
- Treatment related adverse event: Catheter site related reaction, Grade ≥ 3 [3, 7]: 0 n (%)
- Treatment related adverse event: Flushing, All Grades [3, 7]: 0 n (%)
- Treatment related adverse event: Flushing, Grade ≥ 3 [3, 7]: 0 n (%)
- Treatment related adverse event: Headache, All Grades [3, 7]: 0 n (%)
- Treatment related adverse event: Headache, Grade ≥ 3 [3, 7]: 0 n (%)
- Treatment related adverse event: Infusion related reaction, All Grades [3, 7]: 0 n (%)
- Treatment related adverse event: Infusion related reaction, Grade ≥ 3 [3, 7]: 0 n (%)
- Treatment related adverse event: Nausea, All Grades [3, 7]: 0 n (%)
- Treatment related adverse event: Nausea, Grade ≥ 3 [3, 7]: 0 n (%)
- Treatment related adverse event: Pruritus, All Grades [3, 7]: 0 n (%)
- Treatment related adverse event: Pruritus, Grade ≥ 3 [3, 7]: 0 n (%)
- Treatment related adverse event: Any Event, All Grades [3, 8]: 4 (50.0) n (%)
- Treatment related adverse event: Any Event, Grade ≥ 3 [3, 8]: 0 n (%)
- Treatment related adverse event: Catheter site related reaction, All Grades [3, 8]: 0 n (%)
- Treatment related adverse event: Catheter site related reaction, Grade ≥ 3 [3, 8]: 0 n (%)
- Treatment related adverse event: Flushing, All Grades [3, 8]: 0 n (%)
- Treatment related adverse event: Flushing, Grade ≥ 3 [3, 8]: 0 n (%)
- Treatment related adverse event: Headache, All Grades [3, 8]: 0 n (%)
- Treatment related adverse event: Headache, Grade ≥ 3 [3, 8]: 0 n (%)
- Treatment related adverse event: Infusion related reaction, All Grades [3, 8]: 0 n (%)
- Treatment related adverse event: Infusion related reaction, Grade ≥ 3 [3, 8]: 0 n (%)
- Treatment related adverse event: Nausea, All Grades [3, 8]: 0 n (%)
- Treatment related adverse event: Nausea, Grade ≥ 3 [3, 8]: 0 n (%)
- Treatment related adverse event: Pruritus, All Grades [3, 8]: 0 n (%)
- Treatment related adverse event: Pruritus, Grade ≥ 3 [3, 8]: 0 n (%)
- Treatment related adverse event: Any Event, All Grades [3, 9]: 0 n (%)
- Treatment related adverse event: Any Event, Grade ≥ 3 [3, 9]: 0 n (%)
- Treatment related adverse event: Catheter site related reaction, All Grades [3, 9]: 0 n (%)
- Treatment related adverse event: Catheter site related reaction, Grade ≥ 3 [3, 9]: 0 n (%)
- Treatment related adverse event: Flushing, All Grades [3, 9]: 0 n (%)
- Treatment related adverse event: Flushing, Grade ≥ 3 [3, 9]: 0 n (%)
- Treatment related adverse event: Headache, All Grades [3, 9]: 0 n (%)
- Treatment related adverse event: Headache, Grade ≥ 3 [3, 9]: 0 n (%)
- Treatment related adverse event: Infusion related reaction, All Grades [3, 9]: 0 n (%)
- Treatment related adverse event: Infusion related reaction, Grade ≥ 3 [3, 9]: 0 n (%)
- Treatment related adverse event: Nausea, All Grades [3, 9]: 0 n (%)
- Treatment related adverse event: Nausea, Grade ≥ 3 [3, 9]: 0 n (%)
- Treatment related adverse event: Pruritus, All Grades [3, 9]: 0 n (%)
- Treatment related adverse event: Pruritus, Grade ≥ 3 [3, 9]: 0 n (%)
- Treatment related adverse event: Any Event, All Grades [3, 10]: 6 (100) n (%)
- Treatment related adverse event: Any Event, Grade ≥ 3 [3, 10]: 1 (16.7) n (%)
- Treatment related adverse event: Catheter site related reaction, All Grades [3, 10]: 2 (33.3) n (%)
- Treatment related adverse event: Catheter site related reaction, Grade ≥ 3 [3, 10]: 0 n (%)
- Treatment related adverse event: Flushing, All Grades [3, 10]: 1 (16.7) n (%)
- Treatment related adverse event: Flushing, Grade ≥ 3 [3, 10]: 0 n (%)
- Treatment related adverse event: Headache, All Grades [3, 10]: 0 n (%)
- Treatment related adverse event: Headache, Grade ≥ 3 [3, 10]: 0 n (%)
- Treatment related adverse event: Infusion related reaction, All Grades [3, 10]: 4 (16.7) n (%)
- Treatment related adverse event: Infusion related reaction, Grade ≥ 3 [3, 10]: 0 n (%)
- Treatment related adverse event: Nausea, All Grades [3, 10]: 0 n (%)
- Treatment related adverse event: Nausea, Grade ≥ 3 [3, 10]: 0 n (%)
- Treatment related adverse event: Pruritus, All Grades [3, 10]: 0 n (%)
- Treatment related adverse event: Pruritus, Grade ≥ 3 [3, 10]: 0 n (%)
- Treatment related adverse event: Any Event, All Grades [3, 11]: 7 (100) n (%)
- Treatment related adverse event: Any Event, Grade ≥ 3 [3, 11]: 0 n (%)
- Treatment related adverse event: Catheter site related reaction, All Grades [3, 11]: 0 n (%)
- Treatment related adverse event: Catheter site related reaction, Grade ≥ 3 [3, 11]: 0 n (%)
- Treatment related adverse event: Flushing, All Grades [3, 11]: 3 (42.9) n (%)
- Treatment related adverse event: Flushing, Grade ≥ 3 [3, 11]: 0 n (%)
- Treatment related adverse event: Headache, All Grades [3, 11]: 2 (28.6) n (%)
- Treatment related adverse event: Headache, Grade ≥ 3 [3, 11]: 0 n (%)
- Treatment related adverse event: Infusion related reaction, All Grades [3, 11]: 1 (14.3) n (%)
- Treatment related adverse event: Infusion related reaction, Grade ≥ 3 [3, 11]: 0 n (%)
- Treatment related adverse event: Nausea, All Grades [3, 11]: 2 (28.6) n (%)
- Treatment related adverse event: Nausea, Grade ≥ 3 [3, 11]: 0 n (%)
- Treatment related adverse event: Pruritus, All Grades [3, 11]: 2 (28.6) n (%)
- Treatment related adverse event: Pruritus, Grade ≥ 3 [3, 11]: 0 n (%)
- Treatment related adverse event: Any Event, All Grades ([3]; monotherapy, Total (N = 17)): 15 (88.2) n (%)
- Treatment related adverse event: Any Event, Grade ≥ 3 ([3]; monotherapy, Total (N = 17)): 1 (5.9) n (%)
- Treatment related adverse event: Catheter site related reaction, All Grades ([3]; monotherapy, Total (N = 17)): 2 (11.8) n (%)
- Treatment related adverse event: Catheter site related reaction, Grade ≥ 3 ([3]; monotherapy, Total (N = 17)): 0 n (%)
- Treatment related adverse event: Flushing, All Grades ([3]; monotherapy, Total (N = 17)): 4 (23.5) n (%)
- Treatment related adverse event: Flushing, Grade ≥ 3 ([3]; monotherapy, Total (N = 17)): 0 n (%)
- Treatment related adverse event: Headache, All Grades ([3]; monotherapy, Total (N = 17)): 2 (11.8) n (%)
- Treatment related adverse event: Headache, Grade ≥ 3 ([3]; monotherapy, Total (N = 17)): 0 n (%)
- Treatment related adverse event: Infusion related reaction, All Grades ([3]; monotherapy, Total (N = 17)): 2 (11.8) n (%)
- Treatment related adverse event: Infusion related reaction, Grade ≥ 3 ([3]; monotherapy, Total (N = 17)): 0 n (%)
- Treatment related adverse event: Nausea, All Grades ([3]; monotherapy, Total (N = 17)): 2 (11.8) n (%)
- Treatment related adverse event: Nausea, Grade ≥ 3 ([3]; monotherapy, Total (N = 17)): 0 n (%)
- Treatment related adverse event: Pruritus, All Grades ([3]; monotherapy, Total (N = 17)): 2 (11.8) n (%)
- Treatment related adverse event: Pruritus, Grade ≥ 3 ([3]; monotherapy, Total (N = 17)): 0 n (%)
- Dose at which adverse events began ([3]; once weekly monotherapy): 480 mg/m^2
- Non-DLT grade 3-4 treatment-related adverse events ([4]; CIS day 1, Compound A-2 days 2 and 9, 28 pts): 11 pts
- No. DLTs ([4]; Cohort 4: Compound A-2 210 mg/m^2 + Cisplatin 60 mg/m^2, 10/10, grade 3 elevated ALT): 1 (grade 3
- No. DLTs ([4]; Cohort 5: Compound A-2 140 mg/m^2 + Cisplatin 75 mg/m^2, 7/6, grade 3 drug hypersensitivity): 1 (grade 3 drug
- Maximum tolerated combination dose ([4]; combination with CIS): not reached
- Progression-free survival (PFS) (advanced solid tumors [5]; 1 patient with renal cancer (papillary carcinoma), combination with gem): 415 days
- Median PFS (advanced solid tumors [5]; Compound A-2 <90 mg/m^2 + gemcitabine 875 mg/m^2): 8.3 weeks
- Median PFS (advanced solid tumors [5]; Compound A-2 ≥90 mg/m^2 + gemcitabine 500 mg/m^2): 29.3 weeks
- Prolonged stable disease (SD) responses (advanced solid tumors [5]; combination with gem): 2 pts
- Best overall response partial response (PR) (advanced solid tumors [5]; combination with gem, 50 pts): 4 pts
- Progression-free survival (PFS) (advanced solid tumors [5]; pt with GIST, combination with gem): > 191 days
- Time on trial (advanced solid tumors [5]; pt with breast cancer in DL8): > 133 days
- RECIST response (advanced solid tumors [6]; advanced colorectal cancer pt with complete ATM loss, monotherapy 60 mg/m^2 weekly): complete response
- Time on trial (advanced solid tumors [6]; colorectal cancer pt with complete response, monotherapy 60 mg/m^2): ≥ 59 wks
- Duration of RECIST complete response (advanced solid tumors [6]; colorectal cancer subject, monotherapy 60 mg/m^2 weekly, ongoing): more than 28 months
- Median duration of SD (advanced solid tumors [6]; monotherapy, 4 pts): 11 wks
- Best response (advanced solid tumors [6]; part A monotherapy (n=1)): complete response
